Laboratory results from the NIST ThermoML archive (doi:10.1016/j.jct.2012.09.012).

Assay: molar heat capacity at constant pressure; xn = mol fraction of the nth substance listed
Settings: 101 kPa, Liquid, Small sample (50 mg) DSC

CC1=CC[C@H]2C[C@@H]1C2(C)C [(S)-2-pinene] + C=C1CCC2CC1C2(C)C
molar heat capacity at constant pressure [J/K/mol]
Settings | x1 = 0.1002 | x1 = 0.2041 | x1 = 0.2997 | x1 = 0.3922 | x1 = 0.5012 | x1 = 0.5907 | x1 = 0.7026 | x1 = 0.7987 | x1 = 0.9002 | x1 = 1
313.16 K | 249.31 | 250.67 | 250.67 | 252.03 | 250.67 | 249.31 | 250.67 | 252.03 | 253.4 | 250.67
318.16 K | 252.03 | 252.03 | 252.03 | 253.4 | 253.4 | 252.03 | 253.4 | 253.4 | 254.76 | 252.03
323.16 K | 256.12 | 254.76 | 256.12 | 256.12 | 254.76 | 254.76 | 256.12 | 254.76 | 256.12 | 256.12
328.22 K | 257.48 | 256.12 | 257.48 | 258.84 | 256.12 | 257.48 | 258.84 | 256.12 | 258.84 | 257.48
333.22 K | 260.21 | 258.84 | 258.84 | 260.21 | 258.84 | 261.57 | 260.21 | 257.48 | 260.21 | 260.21
338.19 K | 264.29 | 261.57 | 262.93 | 262.93 | 262.93 | 262.93 | 262.93 | 261.57 | 262.93 | 264.29
343.18 K | 267.02 | 265.66 | 267.02 | 265.66 | 265.66 | 267.02 | 264.29 | 264.29 | 265.66 | 267.02
348.15 K | 269.74 | 268.38 | 269.74 | 268.38 | 269.74 | 268.38 | 267.02 | 267.02 | 268.38 | 269.74
353.18 K | 273.83 | 272.47 | 272.47 | 271.11 | 272.47 | 272.47 | 269.74 | 269.74 | 269.74 | 272.47
358.15 K | 275.19 | 273.83 | 273.83 | 273.83 | 275.19 | 275.19 | 272.47 | 271.11 | 272.47 | 275.19
363.18 K | 277.92 | 276.56 | 276.56 | 276.56 | 277.92 | 277.92 | 273.83 | 275.19 | 275.19 | 277.92
